Assay results: patent US5880099A, “Inositol polyphosphates and methods of using same” (The Regents of the University of California, priority 1997, dated 1999)
“Also recorded” adds a separate entry of the source.

How the values were obtained:
Assay type in all cases: cell-based, human
[1] = test system: T84 cells (carbachol-stimulated chloride ion secretion); test: Carbachol-stimulated (calcium-mediated) chloride ion secretion in T84 cells; conditions: for effect on carbachol-stimulated / calcium-mediated chloride ion secretion (in words): T84 cells, preincubation
Procedure: The cell permeable derivative D,L-Bt3 -Ins(1,3,4)P3 /AM was synthesized. Colonic epithelial T84 cells were preincubated for 30 min with 400 μM D,L-Bt3 -Ins(1,3,4)P3 /AM prior to mounting in Ussing chambers and measuring ΔIsc. At 10 min, carbachol (10^-4 M) was added to transiently stimulate calcium-mediated chloride ion secretion. Data were the average of 8 experiments with p<0.04, unpaired, two-sided student's t-test. […]

[2] = test system: colonic epithelial T84 cells (calcium-mediated chloride ion secretion); test: Inhibition of calcium-mediated chloride ion secretion (Table I summary)
Source text: The invention provides compounds that are agonists or antagonists of inositol polyphosphates. Inositol polyphosphate derivatives can function as inositol polyphosphate agonists and antagonists. The effects of compounds of the invention on Ins(3,4,5,6)P4 - and PtdInsP3 -mediated inhibition of calcium-mediated chloride ion secretion are described in the Examples and summarized in Table I.
(§1) Enantiomerically pure 1,2-Bt2 -Ins(3,4,5,6)P4 /AM was synthesized to determine if 1,2-Bt2 -Ins(3,4,5,6)P4 /AM mediates the uncoupling of chloride ion secretion from intracellular calcium concentrations. T84 cells (passages 18-48) were maintained as described previously (Weymer, et al., J. Clin. Invest. 76:1828 (1985)), which is incorporated herein by reference. After 7-10 days of incubation on SNAP-WELLS (Corning Costar; Cambridge, Mass.), monolayers had formed tight junctions. Cell monolayers were preincubated with 100, 200 or 400 μM Bt2 -Ins(3,4,5,6)P4 /AM for 30 min prior to mounting. After an additional 30 min, 0.1 mM histamine was added and chloride ion secretion was monitored. Chloride ion secretion was measured as short circuit current (Isc) across T84 monolayers grown to confluence and mounted in Ussing chambers equipped with voltage clamps (Physiologic Instruments; San Diego, Calif.). Data was acquired and analyzed using "Acquire and Analyze" software (Physiologic Instruments).

[3] = test system: T84 cells (histamine-stimulated chloride ion secretion); test: Histamine-stimulated chloride ion secretion (short circuit current) in T84 monolayers; conditions: for effect on histamine-stimulated / calcium-mediated chloride ion secretion (in words): T84 cells; for activity at 200 µM: 200 μM compound alone
Procedure: as §1, with “T84 cells (passages 18-48) were maintained as described previously (Weymer, et al., J. Clin. Invest. 76:1828 (1985)), which is incorporated herein by reference.” left out
(§2) Initial studies were directed towards understanding structural determinants of Ins(3,4,5,6)P4 responsible for the inhibitory effect on calcium-mediated chloride ion secretion. A series of cell permeable inositol polyphosphate derivatives were synthesized. These derivatives contained either one or two non-hydrolyzable chemical groups on the 1, 2 or 3 position. T84 monolayers were preincubated for 30 minutes with 200 μM of 2-Bt-1-Me-Ins(3,4,5,6)P4 /AM, Me2 -Ins(3,4,5,6)P4 /AM, Me2 -Ins(1,4,5,6)P4 /AM or 2-Bt-3-Me-Ins(1,4,5,6)P4 /AM.
(§3) Following the incubation, cells were mounted in Ussing chambers. Calcium-mediated chloride ion secretion was stimulated with histamine (10^-4 M). Control values were the response to histamine in coincubated monolayers. Data are represented as mean peak ΔIsc ±SEM, expressed as % control for 8 to 10 experiments. Significant differences were identified using the Student's two-tailed t test.

[4] = test system: T84 cells (Ins(3,4,5,6)P4 inhibition of histamine-stimulated chloride ion secretion); test: Reversal of Bt2 -Ins(3,4,5,6)P4 /AM inhibition of histamine-stimulated chloride ion secretion in T84 cells; conditions: for Peak ΔIsc (% Control) after histamine (100 μM): 200 μM antagonist + 200 μM Bt2 Ins (3,4,5,6)P4 /AM, mean ± SEM, 30 min; for reversal of the inhibitory effect of Bt2 -Ins(3,4,5,6)P4 /AM / Ins(3,4,5,6)P4-mediated inhibition (in words): T84 cells, histamine-stimulated
Procedure: as §2, §3
T84 cells were preincubated with cell permeant inositol polyphosphates as described above to determine if any of the inositol polyphosphate derivatives function as antagonists of Ins(3,4,5,6)P4 inhibition of calcium-mediated chloride ion secretion. Following histamine stimulation, short circuit current was measured. […] The % control shown in FIG. 3 represents ΔIsc over peak Isc in control monolayers stimulated with histamine. However, […]

[5] = test system: T84 colonic epithelial cells (carbachol-mediated inhibition of chloride ion secretion); test: Reversal of carbachol-mediated inhibition of thapsigargin-stimulated chloride ion secretion in T84 cells; conditions: carbachol 10^-4 M, thapsigargin 1 μM
Procedure: T84 colonic epithelial cells were treated with D,L-1,2-cyclohexylidene-Ins(3,4,5,6)P4 /AM, 1-Bu-2-Bt-Ins(3,4,5,6)P4 /AM, Bu2 -Ins(3,4,5,6)P4 /AM, 3-Bt-2-Bu-Ins(1,4,5,6)P4 /AM, Bu2 -Ins(1,4,5,6)P4 /AM, 1-Bt-2-Bu-Ins(3,4,5,6)P4 /AM or 3-Bu-2-Bt-Ins(1,4,5,6)P4 /AM and the short circuit current was measured.
One set of cells was preincubated for 30 min with an inositol polyphosphate derivative. The other two sets of cells were preincubated with vehicle, alone. Measurement of Isc was initiated at time 0. At 5 min, carbachol (10^-4 M) was added to one set of cells preincubated with vehicle alone (designated "Carbachol" in FIG. 5) and to the set of cells preincubated with inositol polyphosphate derivatives (designated "Carbachol+D,L-1,2-Cyclohexylidene-Ins(3,4,5,6)P4 /AM" in FIG. 5A). At 30 min, 1 μM thapsigargin was added. Data were collected for n=4 to 6 experiments.

[6] = Homo sapiens, T84, 0.5 h, mean ± SEM, read-out: Peak ΔIsc (% Control) after histamine (100 μM)

Compound	activity at 200 µM [3, 6]	Peak ΔIsc (% Control) after histamine (100 μM) [4]	reversal of the inhibitory effect of Bt2 -Ins(3,4,5,6)P4 /AM / Ins(3,4,5,6)P4-mediated inhibition (in words) [4]	Mechanism and Inositol Polyphosphate Pathway Affected ([2]; pathway: Ins (3,4,5,6)P4)	other results
di-palmitoyl-D,L-O-butyryl-phosphatidyl inositol 3,4,5-trisphosphate heptakis (acetoxymethyl) ester [diC16 -Bt-PtdInsP3 /AM]	–	–	–	–	effect on carbachol-stimulated / calcium-mediated chloride ion secretion (in words) [1]: inhibited calcium-mediated chloride ion secretion; inhibition of calcium-mediated chloride ion secretion ([1]; pretreatment of T84 cells, FIG. 7): up to 74%; Mechanism and Inositol Polyphosphate Pathway Affected ([2]; pathway: PtdInsP3): Agonist of
CC(=O)OCOP(=O)(OCOC(C)=O)O[C@H]1[C@H](OP(=O)(OCOC(C)=O)OCOC(C)=O)[C@@H](OP(=O)(OCOC(C)=O)OCOC(C)=O)[C@@H](Cl)[C@@H](Cl)[C@@H]1OP(=O)(OCOC(C)=O)OCOC(C)=O (relative stereo) [D,L-1,2-Cl2-dideoxy-Ins(3,4,5,6)P4 /AM, D,L-1,2-dichloro-1,2-dideoxy-myo-inositol 3,4,5,6-TKphosphate oct (acetoxymethyl) ester]	–	–	–	–	activity at 400 µM ([3]; Homo sapiens, T84, 0.5 h, 400 μM compound alone, mean ± SEM, read-out: Peak ΔIsc (% Control) after histamine (100 μM)): 89.4 ± 7.8%; effect on histamine-stimulated / calcium-mediated chloride ion secretion (in words) [3]: slight inhibitory effect on chloride ion secretion
CCCC(=O)O[C@@H]1[C@H](OC)[C@@H](OP(=O)(OCOC(C)=O)OCOC(C)=O)[C@H](OP(=O)(OCOC(C)=O)OCOC(C)=O)[C@@H](OP(=O)(OCOC(C)=O)OCOC(C)=O)[C@@H]1OP(=O)(OCOC(C)=O)OCOC(C)=O [2-Bt-3-Me-Ins(1,4,5,6)P4 /AM, 2-O-butyryl-3-O-methyl-myo-inositol 3,4,5,6-TKphosphate oct (acetoxymethyl) ester]	106 ± 3.7%	69.7 ± 5.04 % Control	had essentially no effect	–	–
CCCC(=O)O[C@@H]1[C@@H](OC(=O)CCC)[C@H](OP(=O)(OCOC(C)=O)OCOC(C)=O)[C@@H](OP(=O)(OCOC(C)=O)OCOC(C)=O)[C@H](OP(=O)(OCOC(C)=O)OCOC(C)=O)[C@H]1OP(=O)(OCOC(C)=O)OCOC(C)=O (relative stereo) [D,L-Bt2 -scyllo-Ins(3,4,5,6)P4 /AM, D,L-1,2-O-butyryl-scyllo-inositol 3,4,5,6-TKphosphate oct (acetoxymethyl) ester]	–	–	–	Agonist of	effect on histamine-stimulated / calcium-mediated chloride ion secretion (in words) [3]: inhibit calcium-mediated chloride secretion; effect on histamine-stimulated / calcium-mediated chloride ion secretion (in words) ([3]; listed as scyllo derivative of the cell permeable Bt2 -Ins(3,4,5,6)P4 /AM): at least as effective an inhibitor as the myo derivative
CCCC(=O)O[C@H]1[C@@H](OC)[C@H](OP(=O)(OCOC(C)=O)OCOC(C)=O)[C@@H](OP(=O)(OCOC(C)=O)OCOC(C)=O)[C@H](OP(=O)(OCOC(C)=O)OCOC(C)=O)[C@H]1OP(=O)(OCOC(C)=O)OCOC(C)=O [2-Bt-1-Me-Ins(3,4,5,6)P4 /AM, 2-O-butyryl-1-O-methyl-myo-inositol 3,4,5,6-TKphosphate oct (acetoxymethyl) ester]	87.3 ± 6.6%	117.7 ± 10.6 % Control	enhanced chloride ion secretion; also recorded: reversed Ins(3,4,5,6)P4 -mediated inhibition of chloride ion secretion; also recorded: reversed the inhibitory effect of Bt2 -Ins(3,4,5,6)P4 /AM	Antagonist of	–
CCCCO[C@@H]1[C@H](OCCCC)[C@@H](OP(=O)(OCOC(C)=O)OCOC(C)=O)[C@H](OP(=O)(OCOC(C)=O)OCOC(C)=O)[C@@H](OP(=O)(OCOC(C)=O)OCOC(C)=O)[C@@H]1OP(=O)(OCOC(C)=O)OCOC(C)=O [Bu2 -Ins(1,4,5,6)P4 /AM, D-2,3-Di-O-butyl-myo-inositol 1,4,5,6-tetrakisphosphate octakis(acetozymethyl)ester]	–	–	–	–	reversal of carbachol-mediated inhibition of chloride ion secretion (in words) [5]: enhanced chloride ion secretion; reversal of carbachol-mediated inhibition of chloride ion secretion (in words) ([5]; listed as 2,3-Bu2 -Ins(1,4,5,6)P4 /AM): did not reverse carbachol-mediated inhibition of chloride ion secretion stimulated by thapsigargin
CO[C@@H]1[C@H](OC)[C@H](OP(=O)(OCOC(C)=O)OCOC(C)=O)[C@@H](OP(=O)(OCOC(C)=O)OCOC(C)=O)[C@H](OP(=O)(OCOC(C)=O)OCOC(C)=O)[C@H]1OP(=O)(OCOC(C)=O)OCOC(C)=O [Me2 -Ins(3,4,5,6)P4 /AM, 1,2-di-O-methyl-myo-inositol 3,4,5,6-Tkphosphate oct (acetoxymethyl) ester]	104 ± 11.1%	107.13 ± 10.2 % Control	reversed the inhibitory effect of Bt2 -Ins(3,4,5,6)P4 /AM	Antagonist of	reversal of the inhibitory effect of Bt2 -Ins(3,4,5,6)P4 /AM / Ins(3,4,5,6)P4-mediated inhibition (in words) ([4]; listed as Me2 -Ins-(3,4,5,6)P4 /AM): reversed Ins(3,4,5,6)P4 -mediated inhibition of chloride ion secretion
phosphatidylinositol trisphosphate [PtdInsP3, reference compound]	–	–	–	–	effect on carbachol-stimulated / calcium-mediated chloride ion secretion (in words) [1]: No inhibition of calcium-mediated chloride ion secretion
CO[C@@H]1[C@H](OC)[C@@H](OP(=O)(OCOC(C)=O)OCOC(C)=O)[C@H](OP(=O)(OCOC(C)=O)OCOC(C)=O)[C@@H](OP(=O)(OCOC(C)=O)OCOC(C)=O)[C@@H]1OP(=O)(OCOC(C)=O)OCOC(C)=O [Me2 -Ins(1,4,5,6)P4 /AM, 2,3-di-O-methyl-myo-inositol 3,4,5,6-TKphosphate oct (acetoxymethyl) ester]	120 ± 10.6%	68.4 ± 7.3 % Control	had essentially no effect	–	–
